{
  "source": "patent US20260070917A1",
  "about": "“CYCLIN DEPENDENT KINASE DEGRADERS AND METHODS OF USE THEREOF” (Differentiated Therapeutics Inc, priority 2023, published 2026)",
  "format_in_all_cases": "cell-based",
  "key": {"CCNE1": {"molecular_target": "T1, CCNE1 (Homo sapiens, UniProt P24864)", "T1 construct": "host or cells: HEK293-CCNE1-Hibit", "T1 sequence (P24864 whole entry)": "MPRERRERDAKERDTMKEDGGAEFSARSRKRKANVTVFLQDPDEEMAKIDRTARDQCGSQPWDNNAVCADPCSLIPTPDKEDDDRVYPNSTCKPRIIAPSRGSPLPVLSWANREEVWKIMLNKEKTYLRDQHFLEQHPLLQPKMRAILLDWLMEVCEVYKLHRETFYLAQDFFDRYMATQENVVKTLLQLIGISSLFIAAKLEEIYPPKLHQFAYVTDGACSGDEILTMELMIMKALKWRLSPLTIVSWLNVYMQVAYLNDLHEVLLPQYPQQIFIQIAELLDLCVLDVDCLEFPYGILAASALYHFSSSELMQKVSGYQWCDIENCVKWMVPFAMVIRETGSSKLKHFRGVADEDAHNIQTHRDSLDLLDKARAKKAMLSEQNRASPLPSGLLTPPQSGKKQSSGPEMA", "experiment": "HiBit Assay Protocol for CCNE1 (HIBIT protein quantification, degradation)", "conditions": "HEK293-CCNE1-Hibit cells, compound treatment for 6 hours", "procedure": "HiBit Assay Protocol for CCNE1\n(§1) • 1. The culture medium for HEK293-CCNE1-Hibit cell was prepared using EMEM with 1000 FBS. • 2. Cells were cultivated in T-75 flasks in a cell culture incubator set at 37° C., 5% CO2, 95% relative humidity. Cells were allowed to reach 80-90% confluence before detaching and splitting. • 3. Cultivated cells were rinsed in T-75 flasks with 5 mL PBS. Aspirate off Added was 1.5 mL trypsin, and the cells were incubated at 37° C. for approximately 5 minutes or until the cells detached and floated. • 4. Trypsin was inactivated by adding excess serum containing medium. • 5. Cells were harvested from flask into cell culture medium and then the cell number was counted. HEK293-CCNE1-Hibit cell were seeded into 384-well plate (cell density: 1.6×10^5 cells/well/50 uL medium) in EMEM medium according to the plate map below and incubated overnight at 37° C. and 500 CO2. • Note: Cell Cultured Medium: 90% EMEM+10% FBS+1% Penicillin-Streptomycin Liquid\n(§2) • 1. Test compounds were dissolved at 10 mM DMSO stock solution. 45 μL of stock solution was transferred to a 384 pp-plate. A 3-fold, 10-point dilution was performed via transferring 15 uL compound into 30 uL DMSO by using TECAN liquid handler. • 2. The plates were spinned at room temperature at 1,000 RPM for 1 minute. • 3. 50 nL of diluted compound was transferred from compound source plate into the cell plate by Echo. • 4. After compound treatment for 6 hours, the plate was removed from incubators and equilibrated at room temperature for 15 minutes. The HiBit reagent was prepared, consisting of the following ratios: 10 mL of Nano-Glo®-HiBiT Lytic Buffer, 200 μL of Nano-Glo®-HiBiT Lytic Substrate and 100 μL of LgBiT Protein, mix thoroughly. 20 μL of HiBit reagent was added into each well and the plates were spinned at room temperature at 1,000 RPM for 1 minute to be detected. Then the plates were shaken at 600 RPM at room temperature for 20 minutes, and read by EnVision. • 5. The inhibition activity was calculated following the formula below:\n(§3) [formula] • Note: Where HC is obtained from cells treated with […] only; LC is obtained from culture medium only. • 6. ABS DC50 was calculated by fitting the Curve using Xlfit (v5.3.1.3), equation 201: […]"}, "CDK2": {"molecular_target": "T2, CDK2 (Homo sapiens, UniProt P24941)", "T2 construct": "host or cells: HEK293-CDK2-Hibit", "experiment": "HiBit Assay Protocol for CDK2 (HIBIT protein quantification, degradation)", "conditions": "HEK293-CDK2-Hibit cells, compound treatment for 6 hours; for DC50: ABS DC50", "procedure": "HiBit Assay Protocol for CDK2\nas §1, with “HEK293-CDK2-Hibit cells” for “HEK293-CCNE1-Hibit cell”, “DMEM” for “EMEM”, “10%” for “1000”, “5%” for “500”, “DMEM+10%” for “EMEM+10%”\nas §2, with “mM DMS” for “mM DMSO”, “45 uL” for “45 μL”, “100 uL” for “100 μL”, “Protein, mixed” for “Protein, mix”\nas §3"}, "CDK9": {"molecular_target": "T3, CDK9 (Homo sapiens, UniProt P50750)", "T3 construct": "host or cells: HEK293-CDK9-Hibit", "T3 sequence (P50750 whole entry)": "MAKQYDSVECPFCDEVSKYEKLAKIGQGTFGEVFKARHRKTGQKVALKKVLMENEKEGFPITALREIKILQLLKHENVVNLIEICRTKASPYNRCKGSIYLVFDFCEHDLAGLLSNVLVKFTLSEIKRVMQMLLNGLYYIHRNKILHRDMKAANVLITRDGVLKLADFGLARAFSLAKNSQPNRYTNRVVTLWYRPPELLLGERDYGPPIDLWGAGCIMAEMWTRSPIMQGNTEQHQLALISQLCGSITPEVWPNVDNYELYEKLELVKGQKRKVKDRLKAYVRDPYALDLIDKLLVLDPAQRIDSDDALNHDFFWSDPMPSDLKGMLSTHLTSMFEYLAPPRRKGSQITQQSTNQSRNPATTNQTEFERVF", "experiment": "HiBit Assay Protocol for CDK9 (HIBIT protein quantification, degradation)", "conditions": "HEK293-CDK9-Hibit cells, compound treatment for 6 hours, read-out: CDK9 HIBIT Protein Quantification Maximum", "procedure": "HiBit Assay Protocol for CDK9\n• 1. The culture medium for HEK293-CDK9-Hibit cell was prepared using DMEM with 10% FBS. • 2. Cells were cultivated in T-75 flasks in a cell culture incubator set at 37° C., 5% CO2, 95% relative humidity. Cells were allowed to reach 80-90% confluence before detaching and splitting. • 3. Cultivated cells were rinsed in T-75 flasks with 5 mL PBS. Aspirated off. Added 1.5 mL trypsin, and incubated the cells at 37° C. for approximately 5 minutes or until the cells detached and floated. • 4. Trypsin was inactivated by adding excess serum containing medium. • 5. Cells were harvested from flask into cell culture medium and then the cell number was counted. HEK293-CDK9-Hibit cells were seeded into 384-well plate (cell density: 1.6×10^5 cells/well/50 uL medium) in DMEM medium according to the plate map below and were incubated overnight at 37° C. and 5% CO2. • Note: Cell Cultured Medium: 90% DMEM+10% FBS+1% Penicillin-Streptomycin Liquid\n• 1. Test compounds were dissolved at 3 mM DMSO stock solution. Transferred 45 uL of stock solution to a 384 pp-plate. Perform 3-fold, 10-point dilution via transferring 15 uL compound into 30 uL DMSO by using TECAN liquid handler. • 2. The plates were spinned at room temperature at 1,000 RPM for 1 minute. • 3. Transferred 50 nL of diluted compound from compound source plate into the cell plate by Echo. • 4. After compound treatment for 6 hours, removed the plate from incubators and equilibrated at room temperature for 15 minutes. Prepared the HiBit reagent consists of the following ratios: 10 mL of Nano-Glo®-HiBiT Lytic Buffer, 200 uL of Nano-Glo®-HiBiT Lytic Substrate and 100 uL of LgBiT Protein, mixed thoroughly. Added 20 uL of HiBit reagent into each well and spinned the plates at room temperature at 1,000 RPM for 1 minute to be detected. Plates were then shaken at 600 RPM at room temperature for 20 minutes, and read by EnVision. • 5. The inhibition activity was calculated following the formula below:\n[formula] • Note: Where HC was obtained from cells treated with 0.1% DMSO only; LC was obtained from culture medium only. • 6. The ABS DC50 was calculated by fitting the Curve using Xlfit (v5.3.1.3), equation 201: […]"}},
  "note": "Read-outs that look alike come from different tables or passages of the source.",
  "data": [
    {"smiles": "CC1CCCC1N1C(=O)C2(CC2)c2cnc(NC3CCN(S(=O)(=O)N4CC5(CCN(C(=O)CCCCCc6cccc7c6n(C)c(=O)n7C6CCC(=O)NC6=O)CC5)C4)CC3)nc21", "note": "(stereo not shown) [Compound 40]", "values": [
      {"measurement": "CCNE1 HIBIT Protein Quantification Maximum", "setting": "CCNE1", "value": 29, "unit": "%"},
      {"measurement": "CDK2 HIBIT Protein Quantification Maximum", "setting": "CDK2", "value": 69, "unit": "%"},
      {"measurement": "DC50", "setting": "CDK2", "value": 5, "unit": "nM"},
      {"measurement": "Dmax", "setting": "CDK9; 6 h", "value": 44, "unit": "%"}
    ]},
    {"smiles": "CC(C)[C@@H]1CN([C@H](C)c2cccc(S(=O)(=O)N3CC[C@H](Nc4ncc5c(n4)N([C@@H]4CCC[C@@H](O)C4)C(=O)C54CC4)[C@H](F)C3)c2)CCN1c1ccc2c(N3CCC(=O)NC3=O)nn(C)c2c1", "note": "[Compound 204]", "values": [
      {"measurement": "CCNE1 HIBIT Protein Quantification Maximum", "setting": "CCNE1", "value": 33, "unit": "%"},
      {"measurement": "CDK2 HIBIT Protein Quantification Maximum", "setting": "CDK2", "value": 85, "unit": "%"},
      {"measurement": "DC50", "setting": "CDK2", "value": 10.4, "unit": "nM"},
      {"measurement": "Dmax", "setting": "CDK9; 6 h", "value": 15, "unit": "%"}
    ]},
    {"smiles": "Cn1c(=O)n(C2CCC(=O)NC2=O)c2ccc(C3CCN(Cc4cccc(S(=O)(=O)N5CCC(Nc6ncc7c(n6)N([C@@H]6CCC[C@@H](O)C6)C(=O)C76CC6)CC5)c4)CC3)cc21", "note": "(stereo partly drawn) [Compound 147, 3-[5-(1-{[3-(4-{7′-[(1R,3R)-3-Hydroxycyclohexyl]-6′-oxospiro[cyclopropane-1,5′-pyrrolo[2,3-d]pyrimidin]-2′-ylamino}piperidin-1-ylsulfonyl)phenyl]methyl}piperidin-4-yl)-3-methyl-2-oxo-1,3-benzodiazol-1-yl]piperidine-2,6-dione]", "values": [
      {"measurement": "CCNE1 HIBIT Protein Quantification Maximum", "setting": "CCNE1", "value": 13, "unit": "%"},
      {"measurement": "CDK2 HIBIT Protein Quantification Maximum", "setting": "CDK2", "value": 64, "unit": "%"},
      {"measurement": "DC50", "setting": "CDK2", "value": 11, "unit": "nM"},
      {"measurement": "Dmax", "setting": "CDK9", "value": 2, "unit": "%"}
    ]},
    {"smiles": "CC1CCCC1N1C(=O)C2(CC2)c2cnc(NC3CCN(S(=O)(=O)N4CC5(CCCN(C6CCCN(c7cccc8c7n(C)c(=O)n8C7CCC(=O)NC7=O)C6)C5)C4)CC3)nc21", "note": "(stereo not shown) [Compound 135, 3-{3-Methyl-4-[3-(2-{4-[7′-(2-methylcyclopentyl)-6′-oxospiro[cyclopropane-1,5′-pyrrolo[2,3-d]pyrimidin]-2′-ylamino]piperidin-1-ylsulfonyl}-2,6-diazaspiro[3.5]nonan-6-yl)piperidin-1-yl]-2-oxo-1,3-benzodiazol-1-yl}piperidine-2,6-dione]", "values": [
      {"measurement": "CCNE1 HIBIT Protein Quantification Maximum", "setting": "CCNE1", "value": 8, "unit": "%"},
      {"measurement": "CDK2 HIBIT Protein Quantification Maximum", "setting": "CDK2", "value": 54, "unit": "%"},
      {"measurement": "DC50", "setting": "CDK2", "value": 16.3, "unit": "nM"},
      {"measurement": "Dmax", "setting": "CDK9", "value": 8, "unit": "%"}
    ]},
    {"smiles": "O=C1CCC(N2Cc3cc(N4CCN(C5CN(c6cccc(S(=O)(=O)N7CCC(Nc8ncc9c(n8)N([C@H]8CCC[C@H](O)C8)C(=O)C98CC8)CC7)c6)C5)CC4)ccc3C2=O)C(=O)N1", "note": "(stereo in doubt) [Compound 133, 3-[5-(4-{1-[3-(4-{7′-[(1S,3S)-3-Hydroxycyclohexyl]-6′-oxospiro[cyclopropane-1,5′-pyrrolo[2,3-d]pyrimidin]-2′-ylamino}piperidin-1-ylsulfonyl)phenyl]azetidin-3-yl}piperazin-1-yl)-1-oxo-3H-isoindol-2-yl]piperidine-2,6-dione]", "values": [
      {"measurement": "CCNE1 HIBIT Protein Quantification Maximum", "setting": "CCNE1", "value": 26, "unit": "%"},
      {"measurement": "CDK2 HIBIT Protein Quantification Maximum", "setting": "CDK2", "value": 61, "unit": "%"},
      {"measurement": "DC50", "setting": "CDK2", "value": 9.23, "unit": "nM"},
      {"measurement": "Dmax", "setting": "CDK9; 6 h", "value": 14, "unit": "%"}
    ]},
    {"smiles": "CC1CCCC1N1C(=O)C2(CC2)c2cnc(NC3CCN(S(=O)(=O)N4CCC5(CCN(C(=O)CCCc6cccc7c6n(C)c(=O)n7C6CCC(=O)NC6=O)C5)C4)CC3)nc21", "note": "(stereo not shown) [Compound 32]", "values": [
      {"measurement": "CCNE1 HIBIT Protein Quantification Maximum", "setting": "CCNE1", "value": 22, "unit": "%"},
      {"measurement": "CDK2 HIBIT Protein Quantification Maximum", "setting": "CDK2", "value": 59, "unit": "%"},
      {"measurement": "DC50", "setting": "CDK2", "value": 86, "unit": "nM"},
      {"measurement": "Dmax", "setting": "CDK9; 6 h", "value": 41, "unit": "%"}
    ]},
    {"smiles": "CC1CCCC1N1C(=O)C2(CC2)c2cnc(NC3CCN(S(=O)(=O)N4CCCC45CCN(C(=O)CCCc4cccc6c4n(C)c(=O)n6C4CCC(=O)NC4=O)C5)CC3)nc21", "note": "(stereo not shown) [Compound 24]", "values": [
      {"measurement": "CCNE1 HIBIT Protein Quantification Maximum", "setting": "CCNE1", "value": 21, "unit": "%"},
      {"measurement": "CDK2 HIBIT Protein Quantification Maximum", "setting": "CDK2", "value": 41, "unit": "%"},
      {"measurement": "Dmax", "setting": "CDK9; 6 h", "value": -1, "unit": "%"}
    ]},
    {"smiles": "CC1CCCC1N1C(=O)C2(CC2)c2cnc(NC3CCN(S(=O)(=O)N4CC5CN(C(=O)CCCCc6ccc7c(c6)n(C)c(=O)n7C6CCC(=O)NC6=O)CC54)CC3)nc21", "note": "(stereo not shown) [Compound 111]", "values": [
      {"measurement": "CCNE1 HIBIT Protein Quantification Maximum", "setting": "CCNE1", "value": 9, "unit": "%"},
      {"measurement": "CDK2 HIBIT Protein Quantification Maximum", "setting": "CDK2", "value": 13, "unit": "%"},
      {"measurement": "Dmax", "setting": "CDK9; 6 h", "value": 25, "unit": "%"}
    ]},
    {"smiles": "C[C@@H]1CN([C@@H](C)c2cccc(S(=O)(=O)N3CC[C@H](Nc4ncc5c(n4)N([C@@H]4CCC[C@@H](O)C4)C(=O)C54CC4)[C@H](F)C3)c2)CCN1c1ccc2c(N3CCC(=O)NC3=O)nn(C)c2c1", "note": "[Compound 209]", "values": [
      {"measurement": "CCNE1 HIBIT Protein Quantification Maximum", "setting": "CCNE1", "value": 43, "unit": "%"},
      {"measurement": "CDK2 HIBIT Protein Quantification Maximum", "setting": "CDK2", "value": 91, "unit": "%"},
      {"measurement": "DC50", "setting": "CDK2", "value": 12.7, "unit": "nM"},
      {"measurement": "Dmax", "setting": "CDK9; 6 h", "value": 16, "unit": "%"}
    ]}
  ]
}
